Assay results: US8039430B2 (University of Wollongong, priority 2005, dated 2011)
Where a name gives a salt, the structure may show the parent alone.

Columns and labels:
[1] = tested on: Staphylococcus aureus (ATCC 6538P); test: Antibacterial assay (MIC), Staphylococcus aureus ATCC 6538P, Luria Broth, Example 1; type: cell-based; details: Staphylococcus aureus, ATCC6538P; Example 1 compounds; S. aureus ATCC 6538P; 24 hrs, 37° C.; range if at least two of three values fell within it; read-out: Sa (minimum inhibitory concentration)
Experimental: (§1) Antibacterial Assay Method for Staphylococcus aureus (ATCC 6538P) and Enterococcus faecium
Staphylococcus aureus (ATCC 6538P)
(§2) Compounds are accurately weighed out (between approx. 1-2 mg) and dissolved in either 10% methanol/water (v/v) or 100% DMSO to a final stock concentration of 5 mg/ml.
(§3) Compounds are then diluted 1/10 in H2O to a test conc of 500 ug/ml ready for immediate use, or storage at −20° C.
(§4) Grow up an o/n starter culture of Staphylococcus aureus and each VRE strain by diluting previous culture (stored at 4° C.) 1/1000 into −50 mls Luria Broth (LB) for S. aureus or Enterococossel Broth (EB) for the VRE strains.
(§5) Incubate o/n at 37° C.+shaking. • A glycerol stock (0.6 mls bacterial culture, 0.3 mls glycerol) of each strain is kept at −80° C. if needed. Assay Set Up:
(§6) In a 96well round bottom plate add 50 ul LB/well for the S. aureus plate and add 50 ul EB/well for the VRE plates.
(§7) Add 50 ul of compound dilution (500 ug/ml test conc) to each of three top row wells (ie: tested in triplicate) and dilute 1 in 2 from the top row to the bottom row.
(§8) After the compound dilution, add to each well 50 ul of a 1/1000 dilution of the appropriate overnight bacterial culture, either S. aureus or the different VRE strains.
(§9) Plates are incubated at 37° C. on a slowly rotating plate incubator. • test concentrations are (in ug/ml) 125, 62.5, 31.25, 15.6, 7.8, 3.9, 1.9, 0.98 • final DMSO concentration in the first row of wells of the assay is 2.5% • Vancomycin is included in the assay (in triplicate) at a starting test concentration of 5 ug/ml for S. aureus and 125 ug/ml for the VRE strains Reading Results of Assay:
(§10) After incubation for 24 hrs the plates are removed and read. Inhibition of bacterial growth is indicated by lack of bacterial pellet or a clear well. In the VRE plates bacterial growth is indicated by black coloured media (EB) as well as a bacterial pellet.
(§11) Untreated control wells are included in the assay to check they all contain bacterial pellets. Uninoculated untreated control wells are included to check they all contain clear medium.
(§12) The plates are analysed for MIC and the results tabulated.

[2] = tested on: #243 E. faecium van B ST17; test: Antibacterial assay (MIC), VRE strain #243, Enterococossel Broth, Example 1; type: cell-based, Enterococcus faecium; details: Enterococcus faecium; Example 1 compounds; VRE #243 E. faecium van B; 24 hrs, 37° C.; read-out: 243 (minimum inhibitory concentration)
Experimental: as §1
(§13) VRE strains: #243 E. faecium van B ST17 #449 E. faecium van B ST17
as §2, §3, §4, §5, §6, §7, §8, §9, §10, §11, §12

[3] = tested on: #449 E. faecium van B ST17; test: Antibacterial assay (MIC), VRE strain #449, Enterococossel Broth, Example 1; type: cell-based, Enterococcus faecium; details: Enterococcus faecium; Example 1 compounds; VRE #449 E. faecium van B; 24 hrs, 37° C.; read-out: 449 (minimum inhibitory concentration)
Experimental: as §1, §13, §2, §3, §4, §5, §6, §7, §8, §9, §10, §11, §12

[4] = tested on: #820 E. faecium van A ST17; test: Antibacterial assay (MIC), VRE strain #820, Enterococossel Broth, Example 1; type: cell-based, Enterococcus faecium; details: Enterococcus faecium; Example 1 compounds; VRE #820 E. faecium van A; 24 hrs, 37° C.; read-out: 820 (minimum inhibitory concentration)
Experimental: as §1
(§14) #820 E. faecium van A ST17 #987 E. faecium van B ST39
as §2, §3, §4, §5, §6, §7, §8, §9, §10, §11, §12

[5] = tested on: #987 E. faecium van B ST39; test: Antibacterial assay (MIC), VRE strain #987, Enterococossel Broth, Example 1; type: cell-based, Enterococcus faecium; details: Enterococcus faecium; Example 1 compounds; VRE #987 E. faecium van B; 24 hrs, 37° C.; read-out: 987 (minimum inhibitory concentration)
Experimental: as §1, §14, §2, §3, §4, §5, §6, §7, §8, §9, §10, §11, §12

[6] = tested on: Staphylococcus aureus Mu50 (ATCC 700699); test: MIC determination by micro-broth dilution (NCCLS), S. aureus Mu50; type: cell-based; details: ATCC700699, Example 1 compounds, Mueller Hinton II broth, 24 hours, 37° C.
Experimental: (§15) Antibacterial Assay Methods for Staphylococcus aureus Mu50 (ATCC 700699), Methicillin-Resistant Staphylococcus aureus (ATCC 43300), Multi-Drug-Resistant Staphylococcus epidermidis (ATCC 700562) Compounds
(§16) The compounds were stored at room temperature in the dark prior to use. Each compound was solubilized in DMSO to a final concentration of 40 mg/mL. The stock material was diluted to a concentration equivalent to two times the final in-well high test concentration (100 μg/mL for all experimental compounds) in Mueller Hinton II broth. […] Vancomycin and oxacillin were obtained from Sigma Aldrich Chemical Company and were used as positive and/or negative control compounds in the reported assays at high test concentrations of 100, 25 and 100 μg/mL respectively.
(§17) The bacterial strains employed in these assays were obtained from the American Type Culture Collection (ATCC). All of the bacterial strains were propagated as recommended by the ATCC. Each strain was stored as a frozen glycerol stock at −80° C. and a 10 μL loop of the frozen stocks was used to inoculate each culture for these assays.
(§18) The susceptibility of the above microorganisms to the test compounds was evaluated by determining the MIC of each compound using micro-broth dilution analysis according to the methods recommended by the NCCLS. All microbial strains were obtained from American Type Culture Collections (ATCC) and cultured according to the suppliers recommendations. Evaluation of the susceptibility of each organism against the test compounds included a positive control antibiotics Vancomycin and Oxacillin. For each organism, a standardized inoculum was prepared by direct suspension of freshly plated colonies in Mueller Hinton II broth to an optical density 625 nm (OD625) of 0.1 (equivalent to a 0.5 McFarland standard). The suspended inoculum was diluted to a concentration of approximately 1×10^6 colony forming units per milliliter (CFU/mL) and 100 μL placed into triplicate wells of a 96-well plate containing 100 μL of test compound serially diluted 2-fold in Mueller Hinton II broth. One hundred microliters of the inoculum was also added to triplicate wells containing 100 μL of two-fold serial dilutions of a positive control antibiotic and to wells containing 100 μL of media only. This dilution scheme yielded final concentrations for each microbial organism estimated to be 5×10^5 CFU/mL (verified by colony quantification on appropriate agar plates, data is not presented). Test compound concentrations ranged from a high-test of 1:2 (100 μg/mL)) to a low test of 1:2048 (0.1 μg/mL) using a two-fold dilution scheme. The plates were incubated for 24 hours at 37° C., and the microbial growth at each concentration of compound was determined by measuring the optical density at 625 nm on a Molecular Devices SpectraMax Plus-384 plate reader.
(§19) Microsoft Excel 2003 was used to analyze and graph the data, and the MIC (minimal inhibitory concentration) was determined from the resulting data.

[7] = tested on: Methicillin-Resistant Staphylococcus aureus (ATCC 43300); test: MIC determination by micro-broth dilution (NCCLS), methicillin-resistant S. aureus; type: cell-based; details: ATCC43300, Example 1 compounds, Mueller Hinton II broth, 24 hours, 37° C.
Experimental: as §15, §16, §17, §18, §19

[8] = tested on: Multi-Drug-Resistant Staphylococcus epidermidis (ATCC 700562); test: MIC determination by micro-broth dilution (NCCLS), multi-drug-resistant S. epidermidis; type: cell-based; details: ATCC700562, Example 1 compounds, Mueller Hinton II broth, 24 hours, 37° C.
Experimental: as §15, §16, §17, §18, §19

[9] = biological target: T1, HIV integrase enzyme (Human immunodeficiency virus type 1 group M subtype B, UniProt P04585); test: HIV integrase initial screening (3′ processing function); type: biochemical; details: Example 2 compounds; Conc. 50 μg/mL; 3′ processing function of the enzyme
T1 construct: against the HIV integrase enzyme
Excerpt: Compounds synthesized in Example 2 were additionally included in a random database screening strategy against the HIV integrase enzyme.
The compounds that were chosen to be tested against HIV integrase were 78, 81, 88 and 89 and the results are represented in Table 4.
The results for the screening of the four target molecules 165-168 against the HIV integrase enzyme yielded some encouraging results which supported the proposed mechanism of binding in the active binding trench of the HIV integrase enzyme. The testing procedure for the four target compounds differed from the original screening protocols employed. The original screening measured inhibition against the 3′ processing function of the enzyme at the fixed concentration of 50 μg/mL, whereas the four target molecules were tested in an assay adapted from a literature procedure,^107 which measures inhibition against the 3′ strand transfer function of the enzyme. This allows a result to be obtained as an inhibition constant (IC50) concentration, which is the standard measurement of inhibition within the literature. Along with the four target molecules, 88 was also re-tested in the 3′ strand transfer assay to determine the IC50 for direct comparison with the literature.

Compound	MIC [1] [µg/mL]	MIC [2] [µg/mL]	MIC [3] [µg/mL]	MIC [4] [µg/mL]	MIC [5] [µg/mL]	MIC [6] [µg/mL]	MIC [7] [µg/mL]	MIC [8] [µg/mL]	inhibition at 50 µg/mL [9] [%]
CC(C)CCOc1ccc2ccccc2c1-c1c(OCCNC(=O)[C@@H](CCCCN)NC(=O)[C@@H](CCCNC(=N)N)NC(=O)[C@@H](CC(C)C)NC(=O)Cc2ccccc2)ccc2ccccc12.Cl.Cl (atropisomer, axis not shown) [Compound 30]	0.99 to 15.6	> 62.6	> 62.6	> 62.6	> 62.6	0.99 to 15.6	0.99 to 15.6	0.99 to 15.6	
Cl.Cl.N=C(N)NCCC[C@@H](NC(=O)CCCOc1ccc2ccccc2c1-c1c(OCCCC(=O)N[C@H](CCCNC(=N)N)C(=O)OCc2ccccc2)ccc2ccccc12)C(=O)OCc1ccccc1 (atropisomer, axis not shown) [Compound 31]	0.99 to 15.6	15.7 to 62.5	15.7 to 62.5	15.7 to 62.5	15.7 to 62.5	15.7 to 62.5	0.99 to 15.6	0.99 to 15.6	
C=CCOc1ccc(C[C@H](NC(C)=O)C(=O)N[C@@H](CCCCN)C(=O)N[C@@H](CC=C)C(=O)OC)cc1 [Compound 78, hydrochloride]									15
C=CCOc1ccc(C[C@H](NC(C)=O)C(=O)N[C@@H](CCCNC(=N)N)C(=O)N[C@@H](CC=C)C(=O)OC)cc1 [Compound 81, Methyl(2S,5S,8S)-2-allyl-8-(4-allyloxybenzyl)-3,6,9-triaza-5-(3-[guanidino]propyl)-4,7,10-oxoundecanoate hydrochloride]									70
C=CCOc1ccc(C[C@H](NC(C)=O)C(=O)N[C@@H](CCCCNC(=N)N)C(=O)N[C@@H](CC=C)C(=O)OC)cc1 [Compound 88, Methyl(2S,5S,8S)-2-allyl-9-(4-allyloxyphenyl)-5-(4-[guanidino]butyl)-3,6,9-triaza-4,7,10-trioxoundecanoate hydrochloride]									95
COC(=O)[C@@H]1CC=CCOc2ccc(cc2)C[C@H](NC(C)=O)C(=O)N[C@@H](CCCCNC(=N)N)C(=O)N1 [Compound 89, (7S,10S,13S,4E/Z)-13-Acetamido-10-(4-[guanidino]butyl)-8,11-diaza-7-methoxycarbonyl-2-oxa-9,12-dioxo-1(1,4)phenylenacyclotetradecaphane-4-ene hydrochloride]									4
